Data from patent US4663456A, “2-(substituted piperazinylalkyl)β-carbolines useful in treatment of psychological disorders” (American Home Products Corporation, priority 1985, dated 1987).

Key:
[1] = target: T1, limbic D-2 (Rattus norvegicus, UniProt P61169); experiment: limbic D-2 binding (3H-spiroperidol, homogenized limbic brain tissue)
T1 construct: from tissue; host or cells: homogenized limbic brain tissue
Description: Binding in the presence of the test compound is expressed as a percent of specific binding (total binding less binding in the presence of 1 μM (+)butaclamol). An inhibition constant (Ki) is calculated for each test compound to catagorize its limbic D-2 binding potential. The larger the number, the less potential for dopamine receptor binding and attendant side effects from administration of the antipsychotic agent.

[2] = test system: conditioned avoidance responding in trained male CD rats; experiment: conditioned avoidance lever response test (block of avoidance responding, i.p.); type: in vivo, male CD rats (Charles River); details: Rattus norvegicus, ip, from dose-effect regression line, read-out: AB50 (50% block in avoidance responding)
Description: The antipsychotic properties of the compounds of this invention were established by standard pharmacologically accepted procedures involving conditioned avoidance studies in which trained male CD rats (Charles River), 400-450 gm body weight are exposed to a fifteen second warning tone (conditioned stimulus) continued for an additional fifteen seconds accompanied by electric shock. The rat can avoid the electric shock by depression of a response lever (lever-response). A response during the initial warning tone is considered an avoidance response. The avoidance response is determined and expressed as a percentage of total trials from an appropriate number of trials and a 50% block in avoidance responding (AB50) is obtained from a dose-effect regression line. All the data is based upon (mg/kg) dosing of the animals.

T1 sequence (P61169 whole entry): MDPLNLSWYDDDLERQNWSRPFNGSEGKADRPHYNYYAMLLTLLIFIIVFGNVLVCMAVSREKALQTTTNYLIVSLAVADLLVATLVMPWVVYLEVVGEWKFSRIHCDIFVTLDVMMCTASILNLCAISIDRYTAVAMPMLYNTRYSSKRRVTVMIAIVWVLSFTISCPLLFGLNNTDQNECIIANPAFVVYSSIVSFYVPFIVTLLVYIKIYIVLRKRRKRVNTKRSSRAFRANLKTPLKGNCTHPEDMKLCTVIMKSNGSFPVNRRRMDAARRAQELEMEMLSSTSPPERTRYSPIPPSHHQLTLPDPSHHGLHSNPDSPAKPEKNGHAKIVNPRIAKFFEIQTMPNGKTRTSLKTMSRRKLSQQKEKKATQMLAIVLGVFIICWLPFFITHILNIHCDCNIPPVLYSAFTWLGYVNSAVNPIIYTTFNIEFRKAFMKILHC

SMILES: C[C@@H]1CN(CCCN2CCc3c([nH]c4ccccc34)C2)C[C@@H](C)N1 (relative stereo) [Example 3, 2-[3-(trans-3,5-Dimethyl-1-piperazinyl)propyl]-2,3,4,9-tetrahydro-1H-pyrido[3,4-b]indole]
- Ki ([1]; bound): > 5 µM
- percent, limbic D-2 binding ([1]; concentration not given): 38%

SMILES: c1cnc(N2CCN(CCCN3CCc4c([nH]c5ccccc45)C3)CC2)nc1 [Example 1, 2,3,4,9-Tetrahydro-2-[3-[4-(2-pyrimidinyl)-1-piperazinyl]propyl]-1H-pyrido[3,4-b]indole]
- ED50 [2]: 34.7 mg/kg
